According to patent publication US7919489B2, “Heterocyclyamide-substituted imidazoles” (Aicuris GmbH & Co. KG, priority 2005, dated 2011):

Legend:
[1] = tested on: HCMV; assay: Anti-HCMV cytopathogenicity test (inhibition of CPE); format: cell-based, human cytomegalovirus; conditions: for EC50: Human betaherpesvirus 5, 144 h, concentration inhibiting the CPE by 50% vs untreated virus control, HCMV-infected NHDF cells, 6 days
Procedure: Anti-HCMV (Anti-Human Cytomegalovirus) Cytopathogenicity Tests The test compounds are employed as 50 millimolar (mM) solutions in dimethyl sulfoxide (DMSO). Ganciclovir, foscarnet and cidofovir are used as reference compounds. After the addition of in each case 2 μl of the 50, 5, 0.5 and 0.05 mM DMSO stock solutions to 98 μl portions of cell culture medium in row […] for duplicate determinations, 1:2 dilutions are carried out with 50 μl portions of medium up to row 11 of the 96-well plate. The wells in rows 1 and 12 each contain 50 μl of medium. Then 150 μl of a suspension of 1×10^4 cells (human prepuce fibroblasts [NHDF]) are pipetted into each of the wells (row 1=cell control) and, in rows 2-12, a mixture of HCMV-infected and uninfected NHDF cells (M.O.I.=0.001-0.002), i.e. 1-2 infected cells per 1000 uninfected cells. Row 12 (without substance) serves as virus control. The final test concentrations are 250-0.0005 μM. The plates are incubated at 37° C./5% CO2 for 6 days, i.e. until all the cells in the virus controls are infected (100% cytopathogenic effect [CPE]). The wells are then fixed and stained by adding a mixture of formalin and Giemsa's dye (30 minutes), washed with double-distilled water and dried in a drying oven at 50° C. The plates are then assessed visually using an overhead microscope (Plaque Multiplier from Technomara). The following data can be acquired from the test plates: EC50 (HCMV)=substance concentration in μM which inhibits the CPE (cytopathic effect) by 50% compared with the untreated virus control; SI (selectivity index)=CC50 (NHDF)/EC50 (HCMV).

[2] = Anti-HCMV cytopathogenicity test: cytostatic effects on NHDF cells; format: cell-based; conditions: human, NHDF cells (human prepuce fibroblasts), maximum substance concentration with no visible cytostatic effects vs untreated cell control
Procedure: Anti-HCMV (Anti-Human Cytomegalovirus) Cytopathogenicity Tests The test compounds are employed as 50 millimolar (mM) solutions in dimethyl sulfoxide (DMSO). Ganciclovir, foscarnet and cidofovir are used as reference compounds. After the addition of in each case 2 μl of the 50, 5, 0.5 and 0.05 mM DMSO stock solutions to 98 μl portions of cell culture medium in row […] for duplicate determinations, 1:2 dilutions are carried out with 50 μl portions of medium up to row 11 of the 96-well plate. The wells in rows 1 and 12 each contain 50 μl of medium. Then 150 μl of a suspension of 1×10^4 cells (human prepuce fibroblasts [NHDF]) are pipetted into each of the wells (row 1=cell control) and, in rows 2-12, a mixture of HCMV-infected and uninfected NHDF cells (M.O.I.=0.001-0.002), i.e. 1-2 infected cells per 1000 uninfected cells. Row 12 (without substance) serves as virus control. The final test concentrations are 250-0.0005 μM. The plates are incubated at 37° C./5% CO2 for 6 days, i.e. until all the cells in the virus controls are infected (100% cytopathogenic effect [CPE]). The wells are then fixed and stained by adding a mixture of formalin and Giemsa's dye (30 minutes), washed with double-distilled water and dried in a drying oven at 50° C. The plates are then assessed visually using an overhead microscope (Plaque Multiplier from Technomara). The following data can be acquired from the test plates: CC50 (NHDF)=maximum substance concentration in μM at which no visible cytostatic effects on the cells are evident by comparison with the untreated cell control;

SMILES	SI HCMV (selectivity index = CC50 (NHDF)/EC50 (HCMV)) [1]	EC50 [1]	CC50 at 6 days [2]
Cn1cc(NC(=O)Nc2ccc(OC(F)(F)F)cc2)nc1C(=O)N1CCN(c2ccccn2)CC1 [Example 1, N-{1-Methyl-2-[(4-pyridin-2-ylpiperazin-1-yl)carbonyl]-1H-imidazol-4-yl}-N′-[4-(trifluoromethoxy)phenyl]urea]	14500	3 nM	43500 nM
Cc1ccc(N2CCN(C(=O)c3nc(NC(=O)Nc4ccc(OC(F)(F)F)cc4)cn3C)CC2)nc1 [Example 2, N-(1-Methyl-2-{[4-(5-methylpyridin-2-yl)piperazin-1-yl]carbonyl}-1H-imidazol-4-yl)-N′-[4-(trifluoromethoxy)phenyl]urea]	14530	0.75 nM	10900 nM
Cn1cc(NC(=O)Nc2ccc(OC(F)(F)F)cc2)nc1C(=O)N1CCN(c2ccc(C#N)cn2)CC1 [Example 25]	2600	4.8 nM	12500 nM
COc1ccc(N2CCN(C(=O)c3nc(NC(=O)Nc4ccc(OC(F)(F)F)cc4)cn3C)CC2)nc1 [Example 29]	35790	0.95 nM	34000 nM
Cc1ccc(N2CCN(C(=O)c3nc(NC(=O)Nc4ccc(OC(F)(F)F)cc4)cn3CC3CC3)CC2)nc1 [Example 32]	6240	0.85 nM	5300 nM
